{
  "source": "patent US20260335348A1",
  "about": "“PHARMACEUTICAL FORMS OF A CD73 INHIBITOR” (ORIC Pharmaceuticals, Inc., priority 2022, published 2026)",
  "key": {"[1]": {"assay": "Stability of Form 2 of a gentisate form of Compound 1 under storage conditions (reverse-phase HPLC impurities, XRPD)", "assay_type": "physicochemical", "details": "for Total impurities present: reverse-phase HPLC", "experimental": "To measure stability of the Form 2 of a gentisate form of Compound 1 under storage conditions, samples of Form 2 of a gentisate form of Compound 1 were placed in double low-density polyethylene bags with desiccant between the bags and each was placed into a high-density polyethylene drum. One drum was stored at a temperature of 5 °C and samples of the material were taken at 1 month and 3 months, and the samples were analyzed for the presence of impurities. The other drum was stored at a temperature of 25 °C and at 60% relative humidity (RH), samples of the materials were taken at 1 month and 3 months, and the samples were analyzed for the presence of impurities. The amount of the Form 2 of a gentisate form of Compound 1, and the amount ofany impurities, in each sample was measured by reverse-phase high performance liquid chromatography using the test conditions set and solvent gradients forth in Table 13 and Table 14. The samples were tested to determine the amount remaining of Form 2 at each time point, and the measurements were conducted by x-ray powder diffraction (XRPD) according to USP <941>."}, "[2]": {"assay": "Solubility of gentisate Form 2 of Compound 1 in water, SGF, FaSSIF and FeSSIF after 4 hours at 37 °C (HPLC)", "assay_type": "physicochemical", "experimental": "The solubility of a polymorphic form of a gentisate form of Compound 1 was measured in water, simulated gastric fluid (SGF), fasted-state simulated intestinal fluid (FaSSIF), and fed-state simulated intestinal fluid (FeSSIF) after 4 hours and at 37 °C as follows.\nThe SGF media was prepared by weighing 49.5 mg of NaCl and 25.4 mg of Triton X-100 into a 100-mL volumetric flask. A volume of purified water was added to the flask and the resulting mixture was sonicated until all solids were dissolved. About 1.632 mL of HCl solution (1 M) were then added and sufficient purified water to the target volume and to adjust the pH to 1.8. The solution was then diluted to volume with purified water, mixed well and the pH value was measured to be 1.83.\nA FaSSIF buffer was prepared by weighing 340.8 mg of NaH2PO4, 43.0 mg of NaOH and 619.6 mg of NaCl into a 100-mL volumetric flask. A volume of purified water was added to the flask and the resulting mixture was sonicated until the solids had dissolved. A second volume of purified water was added to the flask to adjust the pH to 6.5. The solution was diluted with another volume of purified water, mixed, and the pH value was measured to be 6.54. The FaSSIF media was prepared by weighing 110.4 mg of SIF powder into a 50-mL volumetric flask to which a volume of FaSSIF dissolving buffer was added. The resulting mixture was sonicated until the SIF powder dissolved. Then mixture was then diluted to volume with FaSSIF dissolving buffer and mixed well. The FaSSIF solution was equilibrated for 2 hours at room temperature before it was used.\nA FeSSIF dissolving buffer was prepared by weighing 0.82 mL of glacial acetic acid, 404.9 mg of NaOH and 1188.2 mg of NaCl into a 100-mL volumetric flask. A volume of purified water was added to the flask and the mixture was sonicated until the solids were dissolved. A second volume of purified water was added to the target volume to adjust the pH to 5.0. The solution was diluted with a volume of purified water, mixed well the pH value was measured to be 4.96. FeSSIF media was prepared by weighing 559.6 mg of SIF powder into a 50-mL volumetric flask. A volume of FeSSIF dissolving buffer was added to the flask and the resulting mixture was sonicated the SIF powder was dissolved. A second volume FeSSIF dissolving buffer was added and the resulting mixture was mixed well. The FeSSIF solution was equilibrated for 2 hours to room temperature before use.\nAn Agilent 1260 high performance liquid chromatography (HPLC) instrument equipped with a DAD detector, a Waters H-Class UPLC with PDA detector was used in the solubility measurements using the conditions set forth in Table 6.\nAbout 10 mg of a gentisate Form 2 of Compound 1 (calculated by weight of the free base of Compound 1) was placed into a 3 mL glass vial and 1 mL of the respective media (water, SGF, FaSSIF and FeSSIF) was added into each glass vial. A cap was placed on each of the vials and they were rolled at 37 °C (25 rpm) for 4 hours. The suspension was then extracted into a centrifugation tube prior to centrifugation (10000 rpm, 37 °C, 5 min) and filtration (0.22 μm PTFE membrane). The resulting supernatant was analyzed by HPLC and the pH was determined. The solubility of the polymorphic form of a gentisate Form 2 of Compound 1 measured was as set forth above was as set forth in Table 7."}, "[3]": {"details": "storage 5 °C, initial (time = zero)"}, "[4]": {"details": "storage 25 °C and 60% RH, 1 month"}, "[5]": {"details": "storage 25 °C and 60% RH, 3 months"}, "[6]": {"details": "storage 25 °C and 60% RH, initial (time = zero)"}},
  "note": "Read-outs that look alike come from different tables or passages of the source.",
  "data": [
    {"smiles": "O=P(O)(O)[C@@](CO)(COCc1nn[nH]n1)OC[C@H]1O[C@@H](n2ncc3c(NC4CCCC4)nc(Cl)nc32)[C@H](O)[C@@H]1O", "note": "[Form 2 of a gentisate form of Compound 1]", "values": [
      {"measurement": "XRPD", "setting": "[1]; storage 5 °C, 1 month", "value": "Crystalline"},
      {"measurement": "Total impurities present", "setting": "[1]; storage 5 °C, 1 month", "value": 4.5, "unit": "% area"},
      {"measurement": "XRPD", "setting": "[1]; storage 5 °C, 3 months", "value": "Crystalline"},
      {"measurement": "Total impurities present", "setting": "[1]; storage 5 °C, 3 months", "value": 4.2, "unit": "% area"},
      {"measurement": "XRPD", "setting": "[1]; [3]", "value": "Crystalline"},
      {"measurement": "Total impurities present", "setting": "[1]; [3]", "value": 4.4, "unit": "% area"},
      {"measurement": "XRPD", "setting": "[1]; [4]", "value": "Crystalline"},
      {"measurement": "Total impurities present", "setting": "[1]; [4]", "value": 4.5, "unit": "% area"},
      {"measurement": "XRPD", "setting": "[1]; [5]", "value": "Crystalline"},
      {"measurement": "Total impurities present", "setting": "[1]; [5]", "value": 4.3, "unit": "% area"},
      {"measurement": "XRPD", "setting": "[1]; [6]", "value": "Crystalline"},
      {"measurement": "Total impurities present", "setting": "[1]; [6]", "value": 4.4, "unit": "% area"},
      {"measurement": "Stability", "setting": "[1]; stored at 5 °C", "value": "stable up to 3 months"},
      {"measurement": "Stability", "setting": "[1]; stored at 25 °C and at 60% RH", "value": "stable up to 3 months"},
      {"measurement": "pH (of supernatant)", "setting": "[2]; fasted-state simulated intestinal fluid (FaSSIF)", "value": 2.5},
      {"measurement": "solubility at 4 h", "setting": "[2]; fasted-state simulated intestinal fluid (FaSSIF), pH 2.5, read-out: Solubility (calculated as the amount of free base of Compound 1)", "value": "> 10.2", "unit": "mg/mL"},
      {"measurement": "pH (of supernatant)", "setting": "[2]; fed-state simulated intestinal fluid (FeSSIF)", "value": 4.4},
      {"measurement": "solubility at 4 h", "setting": "[2]; fed-state simulated intestinal fluid (FeSSIF), pH 4.4, read-out: Solubility (calculated as the amount of free base of Compound 1)", "value": "> 9.42", "unit": "mg/mL"},
      {"measurement": "pH (of supernatant)", "setting": "[2]; simulated gastric fluid (SGF)", "value": 1.7},
      {"measurement": "solubility at 4 h", "setting": "[2]; simulated gastric fluid (SGF), pH 1.7, read-out: Solubility (calculated as the amount of free base of Compound 1)", "value": "> 9.71", "unit": "mg/mL"},
      {"measurement": "pH (of supernatant)", "setting": "[2]; water", "value": 1.7},
      {"measurement": "solubility at 4 h", "setting": "[2]; water, pH 1.7, read-out: Solubility (calculated as the amount of free base of Compound 1)", "value": 26.2, "unit": "mg/mL"}
    ]}
  ]
}
